The values below come from patent US20220323406A1, “METHODS AND COMPOSITIONS FOR DIFFERENTIATING STEM CELLS” (Massachusetts Institute of Technology, priority 2019, published 2022).

Experiment [1] concerns ENR+CD organoids (ISC to Paneth cell differentiation). The experiment is described as follows: Primary screen: basal (non-stimulated) lysozyme secretion LYZ.NS, 2.5-D 384-well ENR+CD organoid differentiation. To be noted: primary screen; for Z.LYZ.NS: standard z score. The experiment is classed as cell-based, mouse. The text has this:
(§1) High-throughput screening.

Experiment [2] shares this test system. The experiment is described as follows: Primary screen: CCh-stimulated lysozyme secretion LYZ.S, 2.5-D 384-well ENR+CD organoid differentiation. The experiment is classed as cell-based, mouse. To be noted: primary screen.
Description: as §1

Experiment [3] has as its system ENR+CD organoids. In words: Primary screen: ATP (CellTiter-Glo 3D, CTG) cell number/viability, 2.5-D 384-well ENR+CD organoids.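 On all read-outs here: compounds given at plating and again on day 3 over a 6-day differentiation from ENR+CV stem-cell-enriched precursors, ATP measured on day 6, plate median as control.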 The following applies: primary screen; for Z.CTG: standard z score. A general note: ATP-based viability assays read luminescence as a measure of living cells.

For `CCOC(=O)[C@H]1O[C@@H]1C(=O)N[C@@H](CC(C)C)C(=O)NCCC(C)C` [Aloxistatin], the Dose.FC.LYZ.NS is given as 0.020 log2 fold change in experiment [1] (dose 0.08 uM), −0.029 log2 fold change in experiment [1] (dose 0.40 uM), −0.037 log2 fold change in experiment [1] (dose 2.00 uM) and −0.142 log2 fold change in experiment [1] (dose 10.00 uM). Besides, the “Z.LYZ.NS (standard z score)” value in experiment [1] (dose 0.08 uM) is on record as 0.171; in experiment [1] (dose 0.40 uM), −0.250; in experiment [1] (dose 2.00 uM), −0.324; in experiment [1] (dose 10.00 uM) it was −1.236. The Dose.FC.LYZ.S is given as 0.025 log2 fold change in experiment [2] (dose 0.08 uM), −0.016 log2 fold change in experiment [2] (dose 0.40 uM), −0.091 log2 fold change in experiment [2] (dose 2.00 uM) and −0.181 log2 fold change in experiment [2] (dose 10.00 uM). The Dose.FC.CTG is reported as −0.006 log2 fold change in experiment [3] (dose 0.08 uM), −0.006 log2 fold change in experiment [3] (dose 0.40 uM), −0.129 log2 fold change in experiment [3] (dose 2.00 uM) and −0.214 log2 fold change in experiment [3] (dose 10.00 uM).

As to `CN[C@@H](C)C(=O)N[C@H](C(=O)N1CCC[C@H]1C(=O)Nc1snnc1-c1ccccc1)C1CCCCC1` [GDC-0152], the Dose.FC.LYZ.NS in experiment [1] (dose 0.08 uM) is listed as −0.002 log2 fold change; in experiment [1] (dose 0.40 uM), −0.020 log2 fold change; in experiment [1] (dose 2.00 uM), 0.083 log2 fold change; in experiment [1] (dose 10.00 uM), 0.103 log2 fold change. In addition, the Z.LYZ.NS was −0.013 in experiment [1] (dose 0.08 uM), −0.176 in experiment [1] (dose 0.40 uM), 0.724 in experiment [1] (dose 2.00 uM) and 0.900 in experiment [1] (dose 10.00 uM). Besides, the Dose.FC.LYZ.S is listed as −0.020 log2 fold change in experiment [2] (dose 0.08 uM), −0.036 log2 fold change in experiment [2] (dose 0.40 uM), −0.057 log2 fold change in experiment [2] (dose 2.00 uM) and −0.009 log2 fold change in experiment [2] (dose 10.00 uM). The Dose.FC.CTG is given as 0.151 log2 fold change in experiment [3] (dose 0.08 uM), 0.158 log2 fold change in experiment [3] (dose 0.40 uM), 0.003 log2 fold change in experiment [3] (dose 2.00 uM) and 0.241 log2 fold change in experiment [3] (dose 10.00 uM). For the same molecule, the Z.CTG amounted to 0.361 in experiment [3] (dose 0.08 uM), 0.377 in experiment [3] (dose 0.40 uM), 0.008 in experiment [3] (dose 2.00 uM) and 0.575 in experiment [3] (dose 10.00 uM).

On to `CCC(=O)Nc1cccc(Oc2nc(Nc3ccc(N4CCN(C)CC4)cc3OC)ncc2Cl)c1` [WZ4003], for which the Dose.FC.LYZ.NS is given as 0.074 log2 fold change in experiment [1] (dose 0.08 uM), −0.041 log2 fold change in experiment [1] (dose 0.40 uM), −0.017 log2 fold change in experiment [1] (dose 2.00 uM) and −0.098 log2 fold change in experiment [1] (dose 10.00 uM). Further, the “Z.LYZ.NS (standard z score)” value in experiment [1] (dose 0.08 uM) is 0.644; in experiment [1] (dose 0.40 uM) it was −0.359; in experiment [1] (dose 2.00 uM), −0.151; in experiment [1] (dose 10.00 uM), −0.850. In addition, the Dose.FC.LYZ.S in experiment [2] (dose 0.08 uM) is given as 0.117 log2 fold change; in experiment [2] (dose 0.40 uM), −0.034 log2 fold change; in experiment [2] (dose 2.00 uM), −0.035 log2 fold change; in experiment [2] (dose 10.00 uM) it was −0.142 log2 fold change. Moreover, the Dose.FC.CTG in experiment [3] (dose 0.08 uM) is recorded as 0.375 log2 fold change; in experiment [3] (dose 0.40 uM), 0.173 log2 fold change; in experiment [3] (dose 2.00 uM), 0.076 log2 fold change; in experiment [3] (dose 10.00 uM), −0.018 log2 fold change. The “Z.CTG (standard z score)” value is 0.896 in experiment [3] (dose 0.08 uM), 0.413 in experiment [3] (dose 0.40 uM), 0.180 in experiment [3] (dose 2.00 uM) and −0.043 in experiment [3] (dose 10.00 uM).
